Test results: US10183015B2, “Heterocyclic compounds and methods of use” (Medivation Technologies LLC, priority 2015, dated 2019)
Where two headings read alike, the source gives them in different places. One block for each compound: values may come before it.

Columns and labels:
[1] = PK parameters for representative compounds (i.v. and p.o.), Table 4; conditions: in vivo; for half-life: read-out: Terminal t1/2 (converted)
HepG2 cells = experiment: HepG2 cell viability under serum-free conditions (MTS); type: cell-based; conditions: Homo sapiens, HepG2, 72 h, 3 days, DMEM without FBS, read-out: Average Viability (% Inhibition, n = 3)
Method: (§1) Cancer cells such as HepG2 cells depend on SREBP activation and de novo lipogenesis to survive, particularly in low serum or serum-free conditions. Using this model, compounds were screened over 24 hours for the ability to block cleavage of SREBP to its active form and over 72 hours for an effect on cell viability under serum-free conditions.
For viability measurements, HepG2 cells were seeded at 5,000 cells per well in 96-well plates in DMEM supplemented with 10% FBS. After 1 day in culture, cells were treated with compounds (20 μM & 5 μM) for 3 days in DMEM without FBS. Viability was measured by MTS […]. […]

SREBP2 = SREBP2 cleavage in HepG2 cells (Western blot); type: cell-based; conditions: 20 μM, 1 day, DMEM without FBS
Method: as §1
Average SREBP2 cleavage in HepG2 cells was measured in the presence of compounds disclosed in Table 1. HepG2 cells were seeded at 500,000 cells per well in 6-well plates in DMEM supplemented with 10% FBS. After 2 days, cells were treated with compounds (20 μM) for 1 day in DMEM without FBS. Western blots were normalized with respect to actin.

AUC(0-t) ([1]; iv, i.v. @ 2 mg/kg): 41 µM·h
Cmax ([1]; iv, i.v. @ 2 mg/kg): 10.2 µM
Vd ([1]; iv, i.v. @ 2 mg/kg): 0.345 L/kg
clearance ([1]; iv, i.v. @ 2 mg/kg): 1.58 mL/min/kg
half-life ([1]; iv, i.v. @ 2 mg/kg): 2.51 h
AUC(0-t) ([1]; po, p.o. @ 10 mg/kg): 302 µM·h
Cmax ([1]; po, p.o. @ 10 mg/kg): 20.3 µM
Tmax ([1]; po, p.o. @ 10 mg/kg): 1 h
bioavailability ([1]; po, p.o. @ 10 mg/kg vs i.v. @ 2 mg/kg): 149%
half-life ([1]; po, p.o. @ 10 mg/kg): 6.96 h
Compound: CC(C)(C)c1cc(-c2nc(-c3ccc(NS(=O)(=O)C(F)(F)F)cc3Cl)cs2)ccn1 [Compound 5, N-(4-(2-(2-tert-butylpyridin-4-yl)thiazol-4-yl)-3-chlorophenyl)-1,1,1-trifluoromethanesulfonamide]
cytotoxicity at 20 µM (HepG2 cells; 20 μM): 99.2%
Average SREBP2 cleavage (% Inhibition, n = 3) (SREBP2): 81.7%

Compound: O=S(=O)(Nc1ccc(-c2csc(-c3ccc(F)cc3CN3CCCC3)n2)c(Cl)c1)C(F)(F)F [Compound 91, N-(3-chloro-4-{2-[4-fluoro-2-(pyrrolidin-1-ylmethyl)phenyl]-1,3-thiazol-4-yl}phenyl)-1,1,1-trifluoromethanesulfonamide]
cytotoxicity at 5 µM (HepG2 cells): 4%

Compound: O=S(=O)(Nc1ccc(-c2csc(-c3ccnc(NC4CCCC4)c3)n2)c(Cl)c1)C(F)(F)F [Compound 92, N-(3-chloro-4-{2-[2-(cyclopentylamino)pyridin-4-yl]-1,3-thiazol-4-yl}phenyl)-1,1,1-trifluoromethanesulfonamide]
cytotoxicity at 5 µM (HepG2 cells): 94%

Compound: O=S(=O)(Nc1ccc(-c2csc(-c3c[nH]c4ccccc34)n2)c(Cl)c1)C(F)(F)F [Compound 93, N-{3-chloro-4-[2-(1H-indol-3-yl)-1,3-thiazol-4-yl]phenyl}-1,1,1-trifluoromethanesulfonamide]
cytotoxicity at 5 µM (HepG2 cells): 82%

Compound: O=S(=O)(Nc1ccc(-c2csc(-c3ccnc4ccccc34)n2)c(Cl)c1)C(F)(F)F [Compound 94, N-[3-chloro-4-[2-(4-quinolyl)thiazol-4-yl]phenyl]-1,1,1-trifluoro-methanesulfonamide]
cytotoxicity at 5 µM (HepG2 cells): 84%

Compound: O=S(=O)(Nc1ccc(-c2csc(-c3ccnc(Cl)c3)n2)c(Cl)c1)C(F)(F)F [Compound 95, N-(3-chloro-4-(2-(2-chloropyridin-4-yl)thiazol-4-yl)phenyl)-1,1,1-trifluoromethanesulfonamide]
cytotoxicity at 5 µM (HepG2 cells): 86%
